Measurements reported in patent publication US6423702B1, “PROCESS FOR THE HYDROXYLATION OF AN ACYCLIC OR CYCLIC METHYLENE RADICAL IN THE ALLYLIC POSITION, PHARMACEUTICAL COMPOSITION CONTAINING HYDROXYCHOLESTEROL DERIVATIVES AND UTILIZATION OF SUCH COMPOSITIONS FOR THE PREPARATION OF DRUGS” (priority 1991, dated 2002).

What was measured:
[1] = test system: hepatocytes from newborn rats; conditions: cited from earlier work
[2] = test system: HTC cells (rat liver tumoral cells); conditions: cited from earlier work
[3] = test system: rat liver epithelial cells; conditions: cited from earlier work
[4] = test system: lymphoma (mouse RDM4 and YAC-1); conditions: mouse RDM4 and YAC-1 lymphoma; cited from earlier work
[5] = test system: cultured heart cells from newborn rats; conditions: cited from earlier work
transformed astrocytes = conditions: cited from earlier work
[6] = test system: rat fibroblasts originating from the heart; conditions: cited from earlier work
[7] = test system: tumors induced by 7,12-di-methylbenz(α)anthracene; conditions: female Sprague-Dawley rats; cited from earlier work
[8] = test system: subcutaneous glioblastomas (C6 cells); test: Subcutaneous tumors induced by inoculating with C6 cells, intratumoral liposome treatment; format: in vivo, rat; conditions: 50 μl liposomes with 1 mg PC and 100 μg steroid injected into the tumors; photographed 48 hours afterwards
Description: The C6 cells (passage 55-57) are injected subcutaneously at the shoulders at a charge of 10^6 cells/200 μl of […] in rats (26 g) aged 3 weeks according to Ledig et al., (Revue de l'Alcoolisme, 1986, 31, 1-11); when the tumors develop (2 weeks after inoculating with the C6 cells), 50 μl of a suspension of liposomes containing 1 mg of PC and 100 μg of cholesteryl oleate or 7β-OH-cholesteryl oleate are injected into the tumors. The animals are photographed 48 hours afterwards.

[9] = test system: ascitic tumors, Krebs-II transplantable carcinoma; conditions: injected intraperitoneally into mice carrying ascitic tumors; cited from earlier work
[10] = test system: reactional gliosis (reactive astrocytes); test: Reactional gliosis after electrolytic lesion of the striatum (brain), GFAP detection; format: in vivo, rat; conditions: rats aged 6 days; 2 μl liposomes with 20 μg PC and 2 μg sterol or oxysterol injected into the site of lesion
Description: (§1) PC and steroidal derivatives are dissolved in CHCL3/methanol [sic] (2/1 v/v), the solvent evaporated and 1 ml of KCL [sic] (0.15 M) added. The suspension is subjected to ultrasound in an ice bath (5×1 min with an interval of 30 sec, amplitude 18 μm), centrifuged 13,000 g for 20 min, the supernatant withdrawn and concentrated 5 times under nitrogen. BRAIN
Rats aged 6 days are anesthetized with an intraperitoneal injection of imalgene 500 (2 mg/10 g) and valium (0.05 ml/10 g) and then placed in a stereotaxic apparatus in order to be subjected to an electrolytic lesion at the level of the striatum. For this, a dental probe, insulated except at the point, is moved down to the level of the striatum according to the stereotaxic coordinates with respect to the lambda. At this level, a current of 2 mA is applied for 10 secs;
2 μl of a suspension of liposomes containing 20 μg of PC and 2 μg of various sterols or oxysterols are injected into the site of lesion.
(§2) GFAP, specific structural labeler of astrocytes, is detected on paraffin sections by the antibody/antiantibody system to GFAP coupled to the peroxidase.

[11] = test system: secondary reactional gliosis (reactive astrocytes); test: Reactional gliosis after complete section of the spinal cord at T8, GFAP detection; format: in vivo, rat; conditions: rats 250 g; 5 μl liposomes with 500 μg PC and 50 μg ester injected 0.5 mm downstream of the section
Description: as §1
After complete section of the spinal cord at the T8 level in rats weighing 250 g (Sprague, Dawley, EFFA, Credo), 5 μl of a suspension of liposomes containing 500 μg of PC and 50 μg of esters of 7β-OH-CH (C18:0 or C18:1) are injected at 0.5 mm downstream of the section.
as §2

[12] = test system: glioblastomas in the rat cortex (C6 cells); test: Glioblastomas induced in the brain with C6 cells, liposome treatment at the tumor site; format: in vivo
Description: The “in vivo” model proposed by Galli et al., (J. Neurooncology, 7, 299-304, 1989) has been adopted with a few modifications in the number of C6-type cells injected and in the age of the rats. Rats (Wistar male) aged 6 days are anesthetized and placed in a stereotaxic apparatus, the skin of the cranium is opened and the skull pierced at appropriate coordinates (4.5 AP, 3.0 ML, 2.0 mm DV with respect to the lambda, set 0) using a dental drill; 200×10^3 C6 in […] of PBS are then injected over 4 minutes and then the skin sutured. 72 hours later, the rats are operated on again and treated with liposomes containing the 7β-hydroxycholesteryl 3-esters. […]
The rats are sacrificed 8 days after the treatment by […] injection of pentobarbital, perfused with formalin (4%) and the withdrawn brain is post-fixed in formalin (4%) and then in isobutanol and included in paraffin. Sections with a thickness of 10 μm are prepared using a section cutter and, after removing paraffin in toluene, the glioblastomas are detected by staining with Cresyl Violet (0.1% in 0.1 M […] and 0.1 M sodium acetate) and subjected to an image analyzer (IBAS, KONTRON, SAMBA ALCATEL). […]
Quantitative analysis of the lesions thus observed requires the acquisition of images with sequences of echoes of spin having several echoes and recovery times. […]

Compound: CC(C)CCC[C@@H](C)[C@H]1CC[C@H]2[C@@H]3[C@@H](O)C=C4C[C@@H](O)CC[C@]4(C)[C@H]3CC[C@]12C [7β-hydroxycholesterol]
- effect on cells with weaker potential for division [1]: not detrimentally affected
- cytotoxic activity against cultured cells [2]: cytotoxic activity
- cytotoxic activity against cultured cells [3]: cytotoxic activity
- cytotoxic activity against cultured cells [4]: cytotoxic activity
- effect on cells with weaker potential for division [5]: not detrimentally affected
- metabolism to esters of fatty acids (transformed astrocytes): metabolized
- cytotoxic activity against cultured cells [6]: cytotoxic activity

Compound: CC(C)CC[C@@H](O)[C@@H](C)[C@H]1CC[C@H]2[C@@H]3[C@@H](O)C=C4C[C@@H](O)CC[C@]4(C)[C@H]3CC[C@]12C [(22 R)-cholest-5-ene-3β,7β22-triol]
- development of tumors [7]: effectively reduced

Compound: CCCCCCCC/C=C\CCCCCCCC(=O)O[C@H]1CC[C@@]2(C)C(=CC[C@H]3[C@@H]4CC[C@H]([C@H](C)CCCC(C)C)[C@@]4(C)CC[C@@H]32)C1 [CH (C18:1), cholesteryl oleate]
- effect on the subcutaneous tumor [8]: practically no effect

Compound: CC(C)CCC[C@@H](C)[C@H]1CC[C@H]2[C@@H]3[C@@H](OC(=O)CCC(=O)O)C=C4C[C@@H](OC(=O)CCC(=O)O)CC[C@]4(C)[C@H]3CC[C@]12C [7β-hydroxycholesterol 3,7-bis(hemisuccinate)]
- antitumoral activity [9]: antitumoral activity

Compound: CC(C)CCC[C@@H](C)[C@H]1CC[C@H]2[C@@H]3CC=C4C[C@@H](O)CC[C@]4(C)[C@H]3CC[C@]12C [CH, cholesterol]
- reactional gliosis in the CNS [10]: ineffective

Compound: CCCCCCCC/C=C\CCCCCCCC(=O)O[C@H]1CC[C@@]2(C)C(=C[C@H](O)[C@H]3[C@@H]4CC[C@H]([C@H](C)CCCC(C)C)[C@@]4(C)CC[C@@H]32)C1 [7β-OH-CH (C18:1), 7β-hydroxycholesteryl 3-oleate]
- secondary reactional gliosis at the spinal cord lesion site [11]: reduces
- size of the tumors (Cresyl Violet staining) ([12]; 40 μg in PC/GM1 liposomes injected 72 hours after C6 inoculation, sacrifice 8 days after treatment): significant reduction
- monitoring of the tumor over time by NMR imagery ([12]; same glioblastoma induced in the cortex of a rat, during treatment): regression
- reactional gliosis in the CNS [10]: high attenuation
- effect on the subcutaneous tumor [8]: significant regression

Compound: CCCCCCCCCCCCCCCC(=O)O[C@H]1CC[C@@]2(C)C(=CC[C@H]3[C@@H]4CC[C@H]([C@H](C)CCCC(C)C)[C@@]4(C)CC[C@@H]32)C1 [CH (C16:0), cholesteryl palmitate]
- reactional gliosis in the CNS [10]: ineffective
